Test results published in US11834453B2, “Substituted pyrimido[5,4-d]pyrimidines as HER2 inhibitors” (Array BioPharma Inc., priority 2020, dated 2023).
Like-named read-outs stand apart in the source and are kept apart here.

Legend:
[1] = biological target: ErbB2 with Exon 20 YVMA insertion (HER2-YVMA) (Homo sapiens (Human), UniProt P04626, INS775YVMA); assay: Cellular phosphorylation assay, constitutive ErbB2 phosphorylation (Y1196) in engineered NIH 3T3 cells, Assay 4; assay type: cell-based
Description: Serially diluted compounds were added to the plates for 1 hour at 37° C./5% CO2. EGFR WT cells were stimulated with 100 ng/ml rEGF for an additional 10 minutes at 37° C./5% CO2. After compound incubation, medium was removed from the cells, which were then fixed in 3.7% formaldehyde in PBS at room temperature for 20 minutes. Following a wash with PBS, cells were permeabilized with 100% methanol at room temperature for 10 minutes. Cells were then washed with PBS/0.05% Tween-20 and blocked with Odyssey blocking buffer (LI-COR Biosciences) for at least 1 hour at room temperature. Antibodies to phosphorylated ErbB2 (Y1196, Cell Signaling #6942) or phosphorylated EGFR (Y1068, Cell Signaling #3777) and GAPDH (Millipore #MAB374) were added to the cells in blocking buffer containing 0.05% azide and incubated overnight at 4° C. After washing with PBS/0.05° i° Tween-20, the cells were incubated with fluorescently labeled secondary anti-rabbit antibody (LiCOR, IRDye 800CW #926-32211) and anti-mouse antibody (Molecular Probes, Alexa Fluor 680 #A21058) for 1 hour at room temperature in the dark. Cells were then washed and analyzed for fluorescence at both wavelengths using the Odyssey Infrared Imaging System (LI-COR Biosciences). Phosphorylated ErbB2 and EGFR signal was normalized to GAPDH signal to generate curves and calculate IC50 values.

EGFR = EGFR (Homo sapiens (Human), UniProt P00533); assay: ErbB enzyme assay (CisBio HTRF KinEASE-TK), Assay 3; assay type: biochemical
Description: (§1) Compound potencies were determined using CisBio's HTRF Kinease-TK assay technology. The kinases were incubated with 250 nM TK-substrate biotin (CisBio, part of cat #62TK0PEC) at 1 mM ATP along with test compounds in a buffer consisting of 25 mM HEPES, pH 7.4, 10 mM MgCl2, 0.01% Triton X-100, and 2% DMSO in a volume of 8 μL. Compounds were prepared as a three-fold serial dilution in DMSO and added to the assay to give the appropriate final concentration. After 30-minute incubation at 22° C., the reaction was quenched by adding 8 μL of quench solution containing 62.5 nM Sa-XL665 and 0.25× TK-Ab-Cryptate in HTRF detection buffer (all from CisBio, part of cat #62TK0PEC). After a 1-hour incubation at 22° C., the extent of reaction was determined using a PerkinElmer EnVision multimode plate reader via HTRF dual wavelength detection, and the percent of control (POC) was calculated using a ratiometric emission factor. One hundred POC was determined using DMSO only samples (no compound present), and 0 POC was determined using pre-quenched control reactions. A 4-parameter logistic curve was fit to the POC values as a function of the concentration of compound, and the IC50 value was the point where the best-fit curve crossed 50 POC.
(§2) Enzyme lots and concentration used are in Table 2.

[2] = biological target: ErbB2 insYVMA (HER2-YVMA, SEQ ID NO: 2) (Homo sapiens, UniProt P04626, INS775YVMA/P1170A); assay: biochemical; conditions: ErbB2 insYVMA enzyme assay
ErbB2 WT = ErbB2 WT (Homo sapiens (Human), UniProt P04626); assay: ErbB enzyme assay (CisBio HTRF KinEASE-TK), Assay 2; assay type: biochemical
Description: as §1, with “Compounds were prepared as a three-fold serial dilution in DMSO and added to the assay to give the appropriate final concentration.” left out, “reactions.” for “reactions. A 4-parameter logistic curve was fit to the POC values as a function of the concentration of compound, and the IC50 value was the point where the best-fit curve crossed 50 POC.”
as §2

Sequence of EGFR (P00533 25-1210): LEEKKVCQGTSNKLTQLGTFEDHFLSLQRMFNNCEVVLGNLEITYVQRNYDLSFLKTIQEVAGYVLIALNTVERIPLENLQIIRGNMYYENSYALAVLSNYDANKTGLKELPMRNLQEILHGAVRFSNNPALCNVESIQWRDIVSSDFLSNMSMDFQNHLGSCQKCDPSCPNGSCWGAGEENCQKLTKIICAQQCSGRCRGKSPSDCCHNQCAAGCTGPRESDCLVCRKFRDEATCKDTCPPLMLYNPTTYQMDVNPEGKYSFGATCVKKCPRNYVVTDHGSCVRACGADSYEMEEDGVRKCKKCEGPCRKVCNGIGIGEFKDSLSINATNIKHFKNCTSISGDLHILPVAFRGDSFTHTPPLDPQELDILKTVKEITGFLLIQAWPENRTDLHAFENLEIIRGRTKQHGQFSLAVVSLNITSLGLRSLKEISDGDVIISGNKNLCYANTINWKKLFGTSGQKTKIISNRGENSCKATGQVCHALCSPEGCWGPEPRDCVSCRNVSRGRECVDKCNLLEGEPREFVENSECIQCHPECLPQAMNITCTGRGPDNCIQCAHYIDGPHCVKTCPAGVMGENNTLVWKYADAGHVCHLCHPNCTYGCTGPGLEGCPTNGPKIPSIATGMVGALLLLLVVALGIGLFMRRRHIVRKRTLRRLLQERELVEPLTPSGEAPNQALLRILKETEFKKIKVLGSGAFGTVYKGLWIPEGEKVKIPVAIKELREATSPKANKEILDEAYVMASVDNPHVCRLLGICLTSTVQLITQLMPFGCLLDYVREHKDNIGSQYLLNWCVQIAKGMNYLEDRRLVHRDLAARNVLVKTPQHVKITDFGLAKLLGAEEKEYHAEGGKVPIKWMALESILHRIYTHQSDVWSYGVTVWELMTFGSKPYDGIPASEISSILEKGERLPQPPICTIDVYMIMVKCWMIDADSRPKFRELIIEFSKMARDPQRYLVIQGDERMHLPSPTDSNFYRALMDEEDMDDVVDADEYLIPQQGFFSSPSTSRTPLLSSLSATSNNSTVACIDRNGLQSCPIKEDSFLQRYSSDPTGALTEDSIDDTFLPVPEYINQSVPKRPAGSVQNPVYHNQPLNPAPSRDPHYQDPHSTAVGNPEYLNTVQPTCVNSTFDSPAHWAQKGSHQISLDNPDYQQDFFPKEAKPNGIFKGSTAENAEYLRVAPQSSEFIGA
Sequence of ErbB2 insYVMA (HER2-YVMA, SEQ ID NO: 2) (P04626 with tags, fused parts or gaps INS775YVMA/P1170A limits assumed): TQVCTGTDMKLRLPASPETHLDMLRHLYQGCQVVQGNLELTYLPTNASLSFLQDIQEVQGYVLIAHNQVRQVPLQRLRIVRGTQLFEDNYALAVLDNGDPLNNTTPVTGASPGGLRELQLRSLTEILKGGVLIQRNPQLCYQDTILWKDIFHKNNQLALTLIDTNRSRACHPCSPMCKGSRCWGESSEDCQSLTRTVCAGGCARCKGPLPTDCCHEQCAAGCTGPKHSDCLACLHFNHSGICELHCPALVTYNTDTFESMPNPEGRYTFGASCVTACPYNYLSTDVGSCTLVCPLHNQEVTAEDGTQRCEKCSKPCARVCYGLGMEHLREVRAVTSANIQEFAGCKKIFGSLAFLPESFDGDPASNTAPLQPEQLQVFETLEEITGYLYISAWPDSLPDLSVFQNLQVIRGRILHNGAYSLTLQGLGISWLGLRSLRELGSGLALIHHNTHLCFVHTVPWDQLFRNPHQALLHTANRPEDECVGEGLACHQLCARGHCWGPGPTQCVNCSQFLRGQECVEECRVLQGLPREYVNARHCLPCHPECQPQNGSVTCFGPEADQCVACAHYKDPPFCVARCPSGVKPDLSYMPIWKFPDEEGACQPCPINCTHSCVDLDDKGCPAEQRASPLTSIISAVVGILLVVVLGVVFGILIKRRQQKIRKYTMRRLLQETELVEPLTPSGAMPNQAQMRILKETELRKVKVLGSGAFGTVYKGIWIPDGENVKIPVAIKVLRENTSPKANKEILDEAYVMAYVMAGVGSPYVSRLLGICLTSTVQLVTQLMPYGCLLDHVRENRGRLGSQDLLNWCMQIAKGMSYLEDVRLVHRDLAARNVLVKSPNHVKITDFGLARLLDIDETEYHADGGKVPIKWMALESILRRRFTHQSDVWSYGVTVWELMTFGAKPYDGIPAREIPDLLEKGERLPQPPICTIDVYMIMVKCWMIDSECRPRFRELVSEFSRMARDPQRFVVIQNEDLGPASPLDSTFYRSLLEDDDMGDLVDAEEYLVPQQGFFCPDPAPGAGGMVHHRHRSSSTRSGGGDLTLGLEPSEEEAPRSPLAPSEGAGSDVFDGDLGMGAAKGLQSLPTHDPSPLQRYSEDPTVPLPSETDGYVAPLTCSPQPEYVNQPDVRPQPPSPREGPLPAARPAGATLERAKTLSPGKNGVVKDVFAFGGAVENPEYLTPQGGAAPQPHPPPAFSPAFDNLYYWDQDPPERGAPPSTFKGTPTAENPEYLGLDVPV
Sequence of ErbB2 with Exon 20 YVMA insertion (HER2-YVMA) (P04626 other isoform, or with tags, fused parts or gaps ins YVMA behind 775): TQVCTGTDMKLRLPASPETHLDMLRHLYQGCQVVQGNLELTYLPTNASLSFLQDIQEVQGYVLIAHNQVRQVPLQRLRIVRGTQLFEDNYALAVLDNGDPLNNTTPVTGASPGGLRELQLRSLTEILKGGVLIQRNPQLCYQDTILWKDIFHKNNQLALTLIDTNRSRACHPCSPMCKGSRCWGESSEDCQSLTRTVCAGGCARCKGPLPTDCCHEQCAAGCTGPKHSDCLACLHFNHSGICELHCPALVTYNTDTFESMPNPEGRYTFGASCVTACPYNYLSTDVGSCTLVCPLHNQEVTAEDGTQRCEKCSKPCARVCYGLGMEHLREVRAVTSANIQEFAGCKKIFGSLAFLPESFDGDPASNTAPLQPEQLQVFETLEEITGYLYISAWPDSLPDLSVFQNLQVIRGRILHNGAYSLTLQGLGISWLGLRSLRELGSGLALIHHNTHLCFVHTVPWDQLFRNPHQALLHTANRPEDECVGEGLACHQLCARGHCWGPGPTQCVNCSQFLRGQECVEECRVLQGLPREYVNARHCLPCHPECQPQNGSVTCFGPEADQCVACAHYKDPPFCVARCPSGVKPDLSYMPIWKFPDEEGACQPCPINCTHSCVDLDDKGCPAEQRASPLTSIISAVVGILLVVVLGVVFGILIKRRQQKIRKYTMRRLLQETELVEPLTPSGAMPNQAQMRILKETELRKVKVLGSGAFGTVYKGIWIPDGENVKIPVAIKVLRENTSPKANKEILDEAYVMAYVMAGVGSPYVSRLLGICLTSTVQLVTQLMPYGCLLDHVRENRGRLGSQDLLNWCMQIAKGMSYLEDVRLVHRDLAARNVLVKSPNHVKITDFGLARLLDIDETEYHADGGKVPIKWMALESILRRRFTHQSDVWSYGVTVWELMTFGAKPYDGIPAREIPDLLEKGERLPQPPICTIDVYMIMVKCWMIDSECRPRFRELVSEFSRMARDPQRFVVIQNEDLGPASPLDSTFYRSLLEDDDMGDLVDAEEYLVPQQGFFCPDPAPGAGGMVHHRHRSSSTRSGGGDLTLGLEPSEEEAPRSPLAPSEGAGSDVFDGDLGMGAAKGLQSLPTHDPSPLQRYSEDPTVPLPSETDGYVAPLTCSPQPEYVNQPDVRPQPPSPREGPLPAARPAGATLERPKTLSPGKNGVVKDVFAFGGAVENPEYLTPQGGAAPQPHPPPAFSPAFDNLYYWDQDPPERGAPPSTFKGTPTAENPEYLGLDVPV
Sequence of ErbB2 WT (P04626 23-1255): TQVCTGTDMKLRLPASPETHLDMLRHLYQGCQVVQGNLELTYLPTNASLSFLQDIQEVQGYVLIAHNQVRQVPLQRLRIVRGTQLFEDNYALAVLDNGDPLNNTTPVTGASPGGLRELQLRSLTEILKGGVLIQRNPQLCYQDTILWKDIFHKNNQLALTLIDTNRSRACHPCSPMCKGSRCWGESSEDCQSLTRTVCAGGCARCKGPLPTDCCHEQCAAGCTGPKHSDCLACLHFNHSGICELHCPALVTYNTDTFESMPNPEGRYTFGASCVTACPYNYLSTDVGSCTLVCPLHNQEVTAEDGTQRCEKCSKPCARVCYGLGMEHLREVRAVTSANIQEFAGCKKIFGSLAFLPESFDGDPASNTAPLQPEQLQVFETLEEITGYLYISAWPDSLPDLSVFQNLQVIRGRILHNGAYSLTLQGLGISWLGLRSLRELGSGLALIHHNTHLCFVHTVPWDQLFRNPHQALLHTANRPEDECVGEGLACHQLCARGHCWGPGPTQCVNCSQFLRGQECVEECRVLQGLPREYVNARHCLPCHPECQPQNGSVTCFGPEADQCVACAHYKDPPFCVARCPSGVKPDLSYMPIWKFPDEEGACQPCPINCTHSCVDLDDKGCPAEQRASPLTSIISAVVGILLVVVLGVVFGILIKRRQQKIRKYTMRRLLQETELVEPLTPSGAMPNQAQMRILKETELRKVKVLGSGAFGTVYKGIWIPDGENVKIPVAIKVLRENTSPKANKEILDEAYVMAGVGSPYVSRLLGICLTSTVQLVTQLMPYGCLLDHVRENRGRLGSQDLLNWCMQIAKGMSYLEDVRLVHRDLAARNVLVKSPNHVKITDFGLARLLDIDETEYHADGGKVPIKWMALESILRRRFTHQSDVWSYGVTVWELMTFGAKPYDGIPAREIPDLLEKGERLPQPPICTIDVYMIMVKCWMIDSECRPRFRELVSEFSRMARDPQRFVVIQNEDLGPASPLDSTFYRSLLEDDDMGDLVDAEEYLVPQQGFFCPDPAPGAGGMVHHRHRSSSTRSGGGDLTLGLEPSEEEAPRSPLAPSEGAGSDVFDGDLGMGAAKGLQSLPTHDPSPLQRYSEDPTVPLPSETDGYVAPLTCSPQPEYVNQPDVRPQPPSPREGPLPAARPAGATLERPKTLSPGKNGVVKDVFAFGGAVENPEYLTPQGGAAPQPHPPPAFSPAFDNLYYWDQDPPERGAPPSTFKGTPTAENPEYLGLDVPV

## Cc1cc(Nc2ncnc3cnc(OCC(F)F)nc23)ccc1Oc1ccc2c(c1)ncn2C [Example 177, 6-(2,2-difluoroethoxy)-N-(3-methyl-4-((1-methyl-1H-benzo[d]imidazol-5-yl)oxy)phenyl)pyrimido[5,4-d]pyrimidin-4-amine]
[1]
  IC50: 0.109 µM
EGFR
  IC50: ≥ 10 µM
[2]; read-out: Assay 1 IC50
  IC50: 53.2 nM
ErbB2 WT
  IC50: 0.15 µM

## Cc1cc(Nc2ncnc3cnc(N4CC(C(F)F)C4)nc23)ccc1Oc1ccc2c(c1)ncn2C [Example 37, 6-(3-(difluoromethyl)azetidin-1-yl)-N-(3-methyl-4-((1-methyl-1H-benzo[d]imidazol-5-yl)oxy)phenyl)pyrimido[5,4-d]pyrimidin-4-amine]
[1]
  IC50: 0.174 µM
EGFR
  IC50: ≥ 10 µM
[2]; read-out: Assay 1 IC50
  IC50: 78.8 nM
ErbB2 WT
  IC50: 0.393 µM

## Cc1cc(Nc2ncnc3cnc(N(C)Cc4ccccc4)nc23)ccc1Oc1ccc2c(c1)ncn2C [Example 331]
EGFR
  IC50: ≥ 10 µM
[2]; read-out: Assay 1 IC50
  IC50: 406 nM
ErbB2 WT
  IC50: 0.389 µM

## Cn1cnc2cc(Oc3ccc(Nc4ncnc5cnc(N6CCOCC6)nc45)cc3Cl)ccc21 [Example 81, N-(3-chloro-4-((1-methyl-1H-benzo[d]imidazol-5-yl)oxy)phenyl)-6-morpholinopyrimido[5,4-d]pyrimidin-4-amine 2,2,2-trifluoroacetate]
[1]
  IC50: 0.0771 µM
EGFR
  IC50: ≥ 10 µM
[2]; Assay 1 IC50 (nM)
  IC50: 153 nM
ErbB2 WT
  IC50: 0.847 µM

## Cc1cc(Nc2ncnc3cnc(N4CC(C)(O)C4)nc23)ccc1Oc1ccc2c(c1)ncn2C [Example 246]
[1]
  IC50: 0.103 µM
EGFR
  IC50: ≥ 10 µM
[2]; read-out: Assay 1 IC50
  IC50: 28.2 nM
ErbB2 WT
  IC50: 0.0708 µM

## Cc1cc(Nc2ncnc3cnc(N[C@H](C)COC(F)(F)F)nc23)ccc1Oc1ccc2c(c1)ncn2C [Example 64, (R)—N8-(3-methyl-4-((1-methyl-1H-benzo[d]imidazol-5-yl)oxy)phenyl)-N2-(1-(trifluoromethoxy)propan-2-yl)pyrimido[5,4-d]pyrimidine-2,8-diamine]
[1]
  IC50: 0.324 µM
EGFR
  IC50: ≥ 10 µM
[2]; read-out: Assay 1 IC50
  IC50: 157 nM
ErbB2 WT
  IC50: 1.3 µM

## Cc1cc(Nc2ncnc3cnc(N4CCC5(COC5)C4)nc23)ccc1Oc1ccc2c(c1)ncn2C [Example 422]
[1]
  IC50: 0.0967 µM
EGFR
  IC50: ≥ 10 µM
[2]; read-out: Assay 1 IC50
  IC50: 58.4 nM
ErbB2 WT
  IC50: 0.0932 µM

## Cc1cc(Nc2ncnc3cnc(N[C@@H](C)COC(F)(F)F)nc23)ccc1Oc1ccc2c(c1)ncn2C [Example 63, (S)—N8-(3-methyl-4-((1-methyl-1H-benzo[d]imidazol-5-yl)oxy)phenyl)-N2-(1-(trifluoromethoxy)propan-2-yl)pyrimido[5,4-d]pyrimidine-2,8-diamine]
[1]
  IC50: 0.191 µM
EGFR
  IC50: ≥ 10 µM
[2]; read-out: Assay 1 IC50
  IC50: 195 nM
ErbB2 WT
  IC50: 0.862 µM

## Cc1cc(Nc2ncnc3cnc(N4CCC(F)(F)CC4)nc23)ccc1Oc1ccc2c(c1)ncn2C [Example 236]
[1]
  IC50: 0.0899 µM
EGFR
  IC50: ≥ 10 µM
[2]; read-out: Assay 1 IC50
  IC50: 149 nM
ErbB2 WT
  IC50: 0.352 µM

## Cc1c(Oc2ccn3ncnc3c2)ccc(Nc2ncnc3cnc(N4C[C@@H]5CC4CO5)nc23)c1F [Example 313]
[2]; read-out: Assay 1 IC50
  IC50: 21.3 nM
ErbB2 WT
  IC50: 0.0404 µM

## CCn1cnc2cc(Oc3ccc(Nc4ncnc5cnc(N6CCOCC6)nc45)cc3C)ccc21 [Example 75, N-(4-((1-ethyl-1H-benzo[d]imidazol-5-yl)oxy)-3-methylphenyl)-6-morpholinopyrimido[5,4-d]pyrimidin-4-amine 2,2,2-trifluoroacetate]
[1]
  IC50: 0.0239 µM
EGFR
  IC50: ≥ 10 µM
[2]; Assay 1 IC50 (nM)
  IC50: 51.8 nM
ErbB2 WT
  IC50: 0.141 µM

## Cc1cc(Nc2ncnc3cnc(N4CC[C@@H]4C(C)(C)O)nc23)ccc1Oc1ccc2c(c1)ncn2C [Example 397]
[1]
  IC50: 0.115 µM
EGFR
  IC50: ≥ 10 µM
[2]; read-out: Assay 1 IC50
  IC50: 20.3 nM
ErbB2 WT
  IC50: 0.144 µM

## CO[C@@H]1CCCN(c2ncc3ncnc(Nc4ccc(Oc5ccc6c(c5)ncn6C)c(C)c4)c3n2)C1 [Example 227]
[1]
  IC50: 0.0538 µM
EGFR
  IC50: ≥ 10 µM
[2]; read-out: Assay 1 IC50
  IC50: 47.4 nM
ErbB2 WT
  IC50: 0.0669 µM

## Cc1cc(Nc2ncnc3cnc(N(C)C4CCCOC4)nc23)ccc1Oc1ccc2c(c1)ncn2C (stereo not drawn) [Example 473]
[2]; read-out: Assay 1 IC50
  IC50: 21.6 nM
ErbB2 WT
  IC50: 0.02 µM

## Cc1cc(Nc2ncnc3cnc(N4CC5CC5(C)C4)nc23)ccc1Oc1ccc2c(c1)ncn2C (stereo not drawn) [Example 225]
[1]
  IC50: 0.0854 µM
EGFR
  IC50: ≥ 10 µM
[2]; read-out: Assay 1 IC50
  IC50: 149 nM
ErbB2 WT
  IC50: 0.217 µM

## Cc1cc(Nc2ncnc3cnc(N4CCC[C@H]4C(F)F)nc23)ccc1Oc1ccc2c(c1)ncn2C [Example 55, (S)-6-(2-(difluoromethyl)pyrrolidin-1-yl)-N-(3-methyl-4-((1-methyl-1H-benzo[d]imidazol-5-yl)oxy)phenyl)pyrimido[5,4-d]pyrimidin-4-amine]
[1]
  IC50: 0.0984 µM
EGFR
  IC50: ≥ 10 µM
[2]; read-out: Assay 1 IC50
  IC50: 110 nM
ErbB2 WT
  IC50: 0.26 µM

## Cc1cc(Nc2ncnc3cnc(N4CC(OC(F)F)C4)nc23)ccc1Oc1ccc2c(c1)ncn2C [Example 244]
[1]
  IC50: 0.0922 µM
EGFR
  IC50: ≥ 10 µM
[2]; read-out: Assay 1 IC50
  IC50: 41.9 nM
ErbB2 WT
  IC50: 0.107 µM

## Cc1cc(Nc2ncnc3cnc(N4CCC[C@@H]4C(F)(F)F)nc23)ccc1Oc1ccc2c(c1)ncn2C [Example 229]
[1]
  IC50: 0.165 µM
EGFR
  IC50: ≥ 10 µM
[2]; read-out: Assay 1 IC50
  IC50: 171 nM
ErbB2 WT
  IC50: 0.376 µM

## Cc1cc(Nc2ncnc3cnc(N4CCCCS4(=O)=O)nc23)ccc1Oc1ccc2c(c1)ncn2C [Example 437]
[1]
  IC50: 0.0958 µM
EGFR
  IC50: ≥ 10 µM
[2]; read-out: Assay 1 IC50
  IC50: 40.8 nM
ErbB2 WT
  IC50: 0.146 µM

## Cc1cc(Nc2ncnc3cnc(N4C5COCC4C5)nc23)ccc1Oc1ccc2c(c1)ncn2C [Example 255]
[1]
  IC50: 0.16 µM
EGFR
  IC50: ≥ 10 µM
[2]; read-out: Assay 1 IC50
  IC50: 113 nM
ErbB2 WT
  IC50: 0.434 µM

## CC(=O)N1C2CC1CN(c1ncc3ncnc(Nc4ccc(Oc5ccc6c(c5)ncn6C)c(C)c4)c3n1)C2 [Example 89, 1-(3-(8-((3-methyl-4-((1-methyl-1H-benzo[d]imidazol-5-yl)oxy)phenyl)amino)pyrimido[5,4-d]pyrimidin-2-yl)-3,6-diazabicyclo[3.1.1]heptan-6-yl)ethan-1-one]
[1]
  IC50: 0.187 µM
EGFR
  IC50: ≥ 10 µM
[2]; read-out: Assay 1 IC50
  IC50: 68.1 nM
ErbB2 WT
  IC50: 0.285 µM

## Cc1c(Oc2ccc3c(c2)ncn3C)ccc(Nc2ncnc3cnc(N4CC5CC4CO5)nc23)c1F (stereo not drawn) [Example 454]
[1]
  IC50: 0.0547 µM
EGFR
  IC50: 4.11 µM
[2]; read-out: Assay 1 IC50
  IC50: 15.3 nM
ErbB2 WT
  IC50: 0.0481 µM

## Cc1cc(Nc2ncnc3cnc(N4CCN(C)[C@H](C)C4)nc23)ccc1Oc1ccc2c(c1)ncn2C [Example 490]
EGFR
  IC50: ≥ 10 µM

## Cc1cc(Nc2ncnc3cnc(O[C@@H]4CNC[C@@H]4F)nc23)ccc1Oc1ccc2c(c1)ncn2C [Example 86, 6-(((3R,4S)-4-fluoropyrrolidin-3-yl)oxy)-N-(3-methyl-4-((1-methyl-1H-benzo[d]imidazol-5-yl)oxy)phenyl)pyrimido[5,4-d]pyrimidin-4-amine]
[1]
  IC50: 0.261 µM
EGFR
  IC50: ≥ 10 µM
ErbB2 WT
  IC50: 0.301 µM

## Cc1cc(Nc2ncnc3cnc(N(C)c4cnn(C)c4)nc23)ccc1Oc1ccc2c(c1)ncn2C [Example 108, N2-methyl-N2-(1-methyl-1H-pyrazol-4-yl)-N8-(3-methyl-4-((1-methyl-1H-benzo[d]imidazol-5-yl)oxy)phenyl)pyrimido[5,4-d]pyrimidine-2,8-diamine]
EGFR
  IC50: 4.31 µM
[2]; read-out: Assay 1 IC50
  IC50: 38.4 nM
ErbB2 WT
  IC50: 0.0389 µM
